Values of other authors in patent US8679052B2, “Method for accurately determining concentrations of diffusible materials” (priority 2009, dated 2014).

Test system: red blood cells
Details: red blood cells suspended in buffer; in the first 1-2 minutes

SMILES: CC(=O)/N=c1/sc(S(N)(=O)=O)nn1C [methazolamide]
- decrease of buffer concentration (uptake by red blood cells): 50%
